Experimental findings from patent US20040121946A9, “Inducing cellular immune responses to her2/neu using peptide and nucleic acid compositions” (priority 2002, published 2004) are described below.

Where two headings read alike, the source gives them in different places. Where a SMILES comes first, the peptide text is derived from it. Where no end group is shown, it is not given here. [ ]: non-standard residue; d: D form. Abu = CC[C@H](N)C(=O)O

The test system of experiment [1] is tumor targets that endogenously express HER2/neu (colon adenocarcinoma cell lines SW403 and HT-29). The experiment can be described thus: Primary in vitro CTL induction, recognition of wild-type peptide and endogenous tumor targets (51Cr release / in situ IFNγ ELISA). Particulars: number of donors yielding a positive response/total tested; normal donors. Format: cell-based, human.

In experiment [2] the test system is peptide-pulsed target cells and transfected cells endogenously expressing the antigen. The experiment can be described thus: Recall CTL responses of PBMCs from ovarian cancer patients. In kind it is cell-based, human. The following applies: data from ovarian cancer patients.
Description: Immunogenicity was additionally confirmed using PBMCs isolated from cancer patients. Briefly, PBMCs were isolated from two patients with ovarian cancer, re-stimulated with peptide-pulsed monocytes and assayed for the ability to recognize peptide-pulsed target cells as well as transfected cells endogenously expressing the antigen.
For the next experiment, the target named is HLA-A*0201 (Homo sapiens, UniProt P04439, D140Y/D185E/D98H/E176V/E277Q/G131W/G231S/I119V/I121R/I166T/I218V/L300P/L318F/N151K/N90K/P208A/P217A/Q86G/Q94H/R138H/R169H/T345S). In kind it is binding.
Another experiment has as its target HLA-A*0203 (Homo sapiens, UniProt P04439, A173T/D140Y/D185E/D98H/E277Q/G131W/G231S/I119V/I121R/I166T/I218V/L180W/L300P/L318F/N151K/N90K/P208A/P217A/Q86G/Q94H/R138H/R169H/T345S). Format: binding.
For the next experiment, the target named is HLA-A*0206 (Homo sapiens, UniProt P04439, D140Y/D185E/D98H/E176V/E277Q/F33Y/G131W/G231S/I119V/I121R/I166T/I218V/L300P/L318F/N151K/N90K/P208A/P217A/Q86G/Q94H/R138H/R169H/T345S). Format: binding.
The mark [3] stands for this setting: HLA-A2 supermotif-bearing peptides, Table XXVII.
Where [4] appears, read: Table XXII, A2 supermotif peptides and analogs.

`CC(C)C[C@H](NC(=O)[C@H](CCC(N)=O)NC(=O)[C@@H](NC(=O)[C@@H](NC(=O)[C@H](CO)NC(=O)[C@@H](NC(=O)[C@H](CC(C)C)NC(=O)[C@@H](N)CS)[C@@H](C)O)[C@@H](C)O)C(C)C)C(=O)N[C@H](C(=O)O)C(C)C`: in experiment [1], the “CTL Tumor” value was 0/4 and the “CTL Wildtype” value was 1/4. Besides, the “CTL Wildtype” value in experiment [2] was 1/2.

Usually IC50 stands for the midpoint of a concentration-inhibition curve. Lower therefore signals higher potency. Take `CC(C)C[C@H](NC(=O)[C@H](CO)NC(=O)CNC(=O)[C@H](Cc1ccccc1)NC(=O)[C@@H](NC(=O)[C@@H](N)CCCCN)[C@@H](C)O)C(=O)N[C@@H](C)C(=O)N[C@@H](Cc1ccccc1)C(=O)N[C@H](C(=O)O)C(C)C`: the IC50 against HLA-A*0201 (setting [3]) was determined as 0.035 µM; against HLA-A*0203 (Table XXVII), 1.01 µM.

For the molecule `CC[C@H](C)[C@H](NC(=O)[C@H](CC(C)C)NC(=O)[C@@H](N)CO)C(=O)N[C@@H](CO)C(=O)N[C@@H](C)C(=O)N[C@H](C(=O)N[C@H](C(=O)NCC(=O)N[C@H](C(=O)O)C(C)C)C(C)C)C(C)C`, the IC50 at HLA-A*0201 (setting [3]) worked out at 0.0071 µM; at HLA-A*0203 (Table XXVII), 0.016 µM; at HLA-A*0206 (Table XXVII) it was 0.02 µM.

As for `CC[C@H](C)[C@H](NC(=O)[C@H](CC(C)C)NC(=O)[C@@H](N)Cc1ccc(O)cc1)C(=O)N[C@@H](CCSC)C(=O)N[C@H](C(=O)N[C@@H](CCCCN)C(=O)N[C@@H](CS)C(=O)N[C@@H](Cc1c[nH]c2ccccc12)C(=O)N[C@@H](CCSC)C(=O)N[C@H](C(=O)O)C(C)C)C(C)C`, the IC50 on HLA-A*0201 (setting [3]) came out at 0.013 µM; on HLA-A*0203 (Table XXVII), 0.116 µM; at HLA-A*0206 (Table XXVII), 0.018 µM.

Regarding `CC[C@H](C)[C@H](NC(=O)[C@H](CCSC)NC(=O)[C@H](Cc1c[nH]c2ccccc12)NC(=O)[C@H](CS)NC(=O)[C@H](CCCCN)NC(=O)[C@@H](NC(=O)[C@H](CCSC)NC(=O)[C@@H](NC(=O)[C@H](CCSC)NC(=O)[C@@H](N)Cc1ccc(O)cc1)[C@@H](C)CC)C(C)C)C(=O)O`, in experiment [1], the “CTL Tumor” value is recorded as 0/1 and the “CTL Wildtype” value is on record as 0/1. Also, in experiment [2], the “CTL Tumor” value is listed as 2/2 and the “CTL Wildtype” value is reported as 2/2.

Turning to `CC[C@H](NC(=O)[C@H](CC(C)C)NC(=O)[C@H](C)N)C(=O)N[C@@H](CCCNC(=N)N)C(=O)N[C@@H](Cc1c[nH]c2ccccc12)C(=O)NCC(=O)N[C@@H](CC(C)C)C(=O)N[C@@H](CC(C)C)C(=O)N[C@@H](CC(C)C)C(=O)O` [Her2/neu.5.B3], the IC50 against HLA-A*0203 (setting [4]) was found to be 0.012 µM. That is a double-digit nanomolar value.

As for `CC[C@H](NC(=O)[C@@H](NC(=O)[C@H](C)N)[C@@H](C)O)C(=O)N[C@@H](CCCNC(=N)N)C(=O)N[C@@H](Cc1c[nH]c2ccccc12)C(=O)NCC(=O)N[C@@H](CC(C)C)C(=O)N[C@@H](CC(C)C)C(=O)N[C@H](C(=O)O)C(C)C` [Her2/neu.5.T2B3V9] (H-AT[Abu]RWGLLV-OH), the IC50 against HLA-A*0201 (setting [4]) came to 16.7 µM; at HLA-A*0206 (setting [4]), 2.18 µM.

Consider `CC[C@H](NC(=O)[C@H](CCSC)NC(=O)[C@H](C)N)C(=O)N[C@@H](CCCNC(=N)N)C(=O)N[C@@H](Cc1c[nH]c2ccccc12)C(=O)NCC(=O)N[C@@H](CC(C)C)C(=O)N[C@@H](CC(C)C)C(=O)N[C@H](C(=O)O)C(C)C` [Her2/neu.5M2B3V9] (H-AM[Abu]RWGLLV-OH), for which the IC50 on HLA-A*0201 (setting [4]) is 0.036 µM; at HLA-A*0203 (setting [4]), 0.016 µM; on HLA-A*0206 (setting [4]), 0.726 µM.

Regarding `CC[C@H](NC(=O)[C@@H](NC(=O)[C@H](C)N)C(C)C)C(=O)N[C@@H](CCCNC(=N)N)C(=O)N[C@@H](Cc1c[nH]c2ccccc12)C(=O)NCC(=O)N[C@@H](CC(C)C)C(=O)N[C@@H](CC(C)C)C(=O)N[C@H](C(=O)O)C(C)C` [Her2/neu.5V2B3V9] (H-AV[Abu]RWGLLV-OH), the IC50 against HLA-A*0201 (setting [4]) worked out at 10 µM; against HLA-A*0203 (setting [4]), 0.141 µM; against HLA-A*0206 (setting [4]) it was 2.18 µM.

Turning to `CC[C@H](C)[C@H](NC(=O)[C@H](CCC(=O)O)NC(=O)[C@@H](NC(=O)[C@H](CC(C)C)NC(=O)[C@@H](N)CO)[C@@H](C)O)C(=O)N[C@@H](CC(C)C)C(=O)N[C@@H](CCCCN)C(=O)NCC(=O)NCC(=O)N[C@H](C(=O)O)C(C)C` [Her2/neu.144], half-maximal inhibition against HLA-A*0203 (setting [4]) (IC50) was put at 0.022 µM.

On to H-QLMPYGCLL-OH [Her2/neu.799], for which the IC50 at HLA-A*0203 (setting [4]) was found to be 0.114 µM; at HLA-A*0206 (setting [4]) it was 0.712 µM.

Consider VLLGVVFGV, for which the IC50 was 0.0024 µM at HLA-A*0201 (setting [3]) and 0.006 µM against HLA-A*0206 (Table XXVII).
